Where two headings read alike, the source gives them in different places.
Experiments:
BCAS mice = assay: Morris water maze (MWM) test in modified BCAS mice; type: in vivo, C57BL/6J mice
Source text: Clinically, most patients with intracranial atherosclerotic stenosis suffer from permanent stenosis without occlusion. Therefore, to mimic clinical atherosclerotic stenosis with permanent carotid artery (CCA) hypoperfusion, a modified BCAS model was adapted by ligating the CCA guided with a 30 gauge needle (0.31 mm diameter) in the right CCA and a 33 gauge needle (0.21 mm diameter) in the left CCA with a 4-0 silk suture. […] Next, changes of total NKCC1 (tNKCC1) protein expression were surveyed in different brain regions at 2 and 4 wks post-surgery by immunofluorescence staining (IF). […] Therefore, in the rest of the study, the investigation was focused on its association to white matter GFAP^+ astrogliosis and lesion of CC and external capsul (EC) tracks. […] However, by 2 wks post-BCAS surgery, tNKCC1 immunofluorescence intensity in the CC tracks was increased by ˜3 folds (p<0.05), and further elevated to ˜6 folds by 4 wks (p<0.05, arrowhead). Data are mean±SEM, n=4, *p<0.05, **p<0.01. […] The upregulation of tNKCC1 and GFAP protein expression in the CC is correlated, with a Pearson's correlation coefficient of r=0.9 (p<0.001). […] In contrast, no elevated tNKCC1 protein was detected either in Iba1^+ microglia/macrophages or in Olig2+ oligodendrocytes (OL) at 4 wks post-BCAS surgery (FIG. 1D). Without wishing to be bound by theory, these findings indicate that upregulation of NKCC1 expression and activity in reactive astrocytes may play a critical role in white matter inflammation, OL death, and demyelination after BCAS. Next, whether administration of SPAK inhibitor ZT-1a reduces WML and improves cognitive functions was examined. Starting at 14 days after BCAS surgery in mice (male), either vehicle DMSO (Veh, 2 ml/kg) or ZT-1a (5 mg/kg, every 72 h, i.p) was administered every 3 days, until they were sacrificed at day 35 post-BCAS (FIG. 3A). […] Motor functions are similar in all groups and average swimming speeds were not different in the Sham-, Veh- and ZT-1a-treated mice. Data are mean±SEM, n=6 (Sham and ZT-1a) or 5 (Veh), *p<0.01 vs. sham, *p<0.05 vs. Veh.

KCC3 = assay: Cellular inhibition of KCC3 phosphorylation (pThr991, pThr1048); type: cell-based; conditions: n = 3, — = no inhibition
Source text: 8. Cellular Activity Profile of Inhibitors with the Salicyclic Amide
A list of the compounds evaluated for their ability to inhibit phosphorylation of SPAK/NKCC1/KCC3 activity is illustrated in Table 1 below.

Coil BCAS mice = assay: Coil BCAS model, delayed administration (NOR, MBP immunostaining, CBF, body weight); type: in vivo
Method: The efficacy of administration of ZT-1a starting at 4 wks post-BCAS surgery, when matter demyelination has reached its peak, was examined next. To test the reproducibility of these findings, in this pilot study, the Coil BCAS model was used by placing two microcoils (0.18 mm diameter) in each CCAs, a well-established model with CBF reduction and accompanied by ischemic lesion to white matter tracks, cortex, and hippocampus. Either vehicle DMSO (Veh, 2 ml/kg) or ZT-1a (5 mg/kg, every 72 h, i.p) was administered at 4-8 wks post-BCAS (i.e., during 28-56 days after coil-BCAS, every 3 days) (FIG. 7A). […] Then MBP expression levels were examined in these brains by immunostaining. […] Data are mean±SEM, n=5-8, *p<0.01 vs. sham, *p<0.05 vs. Veh.

IC50 (KCC3; Hypotonic conditions, read-out: KCC3 pThr1048 (μM) hypo): 3 µM
IC50 (KCC3; Isotonic conditions, read-out: KCC3 pThr991 (μM) Iso): 3 µM
IC50 (KCC3; Isotonic conditions, read-out: KCC3 pThr1048 (μM) Iso): 1 µM
Compound: Cc1cc(C(C#N)c2ccc(Cl)cc2)c(Cl)cc1NC(=O)c1cc(Cl)ccc1O (stereo not shown) [1a (ZT-1a)]
escape latency in MWM test (BCAS mice; 5 mg/kg i.p. every 72 h from day 14 after BCAS, 4 wks post-BCAS, vs Veh-treated BCAS mice): significantly less escape latency
time in the target quadrant, spatial probe trial (BCAS mice; 5 mg/kg i.p. every 72 h from day 14 after BCAS, mean±SEM, n=6, Veh 15.3±1.2 sec, p<0.05): 26.3 ± 4.3 s
average swimming speeds (BCAS mice; Sham-, Veh- and ZT-1a-treated mice compared): not different
memory function in novel objective recognition test (NOR) (Coil BCAS mice; 5 mg/kg i.p. every 72 h at 4-8 wks post-BCAS): no memory function impairment
body weight changes (Coil BCAS mice; 5 mg/kg i.p. every 72 h at 4-8 wks post-BCAS, data not shown): No body weight changes
MBP levels in CC and EC tracts (Coil BCAS mice; delayed administration 4-8 wks post-BCAS, p<0.05): significantly increased
cerebral blood flow (CBF) (Coil BCAS mice; delayed treatment for four weeks, by 8 wks post-BCAS): significantly improved

Source: US11925611B2, “Use of ZT-1A and analogs thereof to prevent and/or treat neurodegenerative and neurocognitive disorders” (United States Government as Represented by the Department …, priority 2021, dated 2024)
